Data published in ChEMBL document CHEMBL1201862, “PubChem BioAssay data set” (2004).
The source made the active and inactive calls.

Tests used:
Beta-galactosidase = Beta-galactosidase (Escherichia coli, UniProt Q8VNN2); assay: Dose response counterscreen for EBI2 assay utilizing the enzyme, b-galactosidase.; format: functional
[1] = target: T1, Sentrin-specific protease 1 (Homo sapiens, UniProt Q9P0U3); assay: potency of human SENP1 inhibitors, dose response, biochemical, kinetic FRET (AID 651697); format: functional; conditions: read-out: IC50_Mean
T1 sequence (Q9P0U3 whole entry): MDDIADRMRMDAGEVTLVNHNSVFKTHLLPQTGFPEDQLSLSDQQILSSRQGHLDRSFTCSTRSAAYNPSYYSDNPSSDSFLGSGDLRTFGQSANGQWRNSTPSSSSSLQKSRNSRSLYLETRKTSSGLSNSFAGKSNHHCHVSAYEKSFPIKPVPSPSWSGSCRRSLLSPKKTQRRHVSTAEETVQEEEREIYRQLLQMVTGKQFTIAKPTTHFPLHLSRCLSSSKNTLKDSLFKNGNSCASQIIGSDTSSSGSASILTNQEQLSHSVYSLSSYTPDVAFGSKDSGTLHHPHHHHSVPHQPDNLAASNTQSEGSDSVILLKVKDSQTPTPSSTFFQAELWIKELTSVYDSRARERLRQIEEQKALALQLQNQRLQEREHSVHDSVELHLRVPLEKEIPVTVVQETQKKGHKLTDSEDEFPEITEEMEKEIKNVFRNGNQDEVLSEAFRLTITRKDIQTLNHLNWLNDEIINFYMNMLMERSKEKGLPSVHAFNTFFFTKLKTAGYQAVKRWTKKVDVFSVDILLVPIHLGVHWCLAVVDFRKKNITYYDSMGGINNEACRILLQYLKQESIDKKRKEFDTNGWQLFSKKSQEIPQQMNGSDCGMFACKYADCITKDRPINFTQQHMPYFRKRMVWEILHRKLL

[2] = target: T1, Sentrin-specific protease 1; assay: Dose response confirmation of small molecule inhibitors of the catalytic domain of the SUMO protease, SENP1 in a FRET assay.; format: functional; conditions: read-out: IC50_Mean
[3] = Counterscreen for IDE inhibitors: Luminescence-based cell-based high throughput dose response assay to identify compounds that are cytotoxic to HEK cells. [Related pubchem assays: 434962 (Primary screen (IDE inhibitors in singlicate)), 449730 (Counterscreen (Cytotoxicity in triplicate)), 435028 (Confirmation (IDE inhibitors in triplicate)) …; format: functional; conditions: HEK293
Insulin-degrading enzyme = target: T2, Insulin-degrading enzyme (Homo sapiens, UniProt P14735); assay: Dose Response: Fluorescence polarization-based cell-based high throughput dose response assay for inhibitors of insulin-degrading enzyme (IDE). [Related pubchem assays: 434962 (Primary screen (IDE inhibitors in singlicate)), 449730 (Counterscreen (Cytotoxicity in triplicate)), 435028 (Confirmation (IDE inhibitors in triplicate)), 434984 (Summary …; format: functional
T2 sequence (P14735 whole entry): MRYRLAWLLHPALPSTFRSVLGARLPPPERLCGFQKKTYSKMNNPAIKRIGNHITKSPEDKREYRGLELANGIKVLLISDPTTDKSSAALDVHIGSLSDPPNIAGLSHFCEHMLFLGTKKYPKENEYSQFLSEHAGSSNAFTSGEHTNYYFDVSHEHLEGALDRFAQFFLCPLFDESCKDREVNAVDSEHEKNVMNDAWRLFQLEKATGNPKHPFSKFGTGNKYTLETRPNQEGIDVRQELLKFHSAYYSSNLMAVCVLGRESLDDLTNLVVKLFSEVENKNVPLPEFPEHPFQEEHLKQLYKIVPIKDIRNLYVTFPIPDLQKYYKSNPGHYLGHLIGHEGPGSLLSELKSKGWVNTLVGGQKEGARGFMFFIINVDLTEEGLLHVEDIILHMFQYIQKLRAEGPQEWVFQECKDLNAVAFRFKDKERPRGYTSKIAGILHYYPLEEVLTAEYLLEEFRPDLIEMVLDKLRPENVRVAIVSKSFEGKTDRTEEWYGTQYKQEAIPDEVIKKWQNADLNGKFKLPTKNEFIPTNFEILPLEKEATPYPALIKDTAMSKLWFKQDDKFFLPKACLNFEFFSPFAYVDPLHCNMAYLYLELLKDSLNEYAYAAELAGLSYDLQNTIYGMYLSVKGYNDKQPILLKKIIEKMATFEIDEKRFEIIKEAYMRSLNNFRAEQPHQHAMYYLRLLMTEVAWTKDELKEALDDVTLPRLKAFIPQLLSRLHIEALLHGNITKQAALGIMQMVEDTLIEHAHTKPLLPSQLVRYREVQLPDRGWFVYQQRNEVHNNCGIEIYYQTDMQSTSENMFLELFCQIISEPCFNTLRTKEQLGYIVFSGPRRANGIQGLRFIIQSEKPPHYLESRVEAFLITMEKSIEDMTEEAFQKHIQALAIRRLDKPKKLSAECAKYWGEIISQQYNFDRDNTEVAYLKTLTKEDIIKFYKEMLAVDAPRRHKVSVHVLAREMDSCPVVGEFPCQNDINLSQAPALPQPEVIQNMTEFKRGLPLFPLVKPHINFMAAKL

Caspase-6 = target: T3, Caspase-6 (Homo sapiens, UniProt P55212); assay: human caspase-6 inhibitors, dose response, biochemical, VEID-R110 fluorescence, cherry-pick (AID 720632)
T3 sequence (P55212 whole entry): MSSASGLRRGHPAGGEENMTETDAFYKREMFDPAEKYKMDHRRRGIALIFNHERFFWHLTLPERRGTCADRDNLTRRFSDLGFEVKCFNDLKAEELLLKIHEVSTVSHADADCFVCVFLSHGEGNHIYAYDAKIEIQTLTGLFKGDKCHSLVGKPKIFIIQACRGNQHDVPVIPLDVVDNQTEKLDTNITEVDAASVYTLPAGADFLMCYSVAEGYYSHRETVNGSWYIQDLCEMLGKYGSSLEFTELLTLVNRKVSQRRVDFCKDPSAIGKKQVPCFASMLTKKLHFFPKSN

[4] = target: T4, Alkaline phosphatase, tissue-nonspecific isozyme (Homo sapiens, UniProt P05186); assay: TNAP enzyme inhibition by screening hits, dose response, selectivity assay for mouse IAP inhibitor project, biochemical, human TNAP, uHTS hits (AID 488906); format: functional
T4 sequence (P05186 whole entry): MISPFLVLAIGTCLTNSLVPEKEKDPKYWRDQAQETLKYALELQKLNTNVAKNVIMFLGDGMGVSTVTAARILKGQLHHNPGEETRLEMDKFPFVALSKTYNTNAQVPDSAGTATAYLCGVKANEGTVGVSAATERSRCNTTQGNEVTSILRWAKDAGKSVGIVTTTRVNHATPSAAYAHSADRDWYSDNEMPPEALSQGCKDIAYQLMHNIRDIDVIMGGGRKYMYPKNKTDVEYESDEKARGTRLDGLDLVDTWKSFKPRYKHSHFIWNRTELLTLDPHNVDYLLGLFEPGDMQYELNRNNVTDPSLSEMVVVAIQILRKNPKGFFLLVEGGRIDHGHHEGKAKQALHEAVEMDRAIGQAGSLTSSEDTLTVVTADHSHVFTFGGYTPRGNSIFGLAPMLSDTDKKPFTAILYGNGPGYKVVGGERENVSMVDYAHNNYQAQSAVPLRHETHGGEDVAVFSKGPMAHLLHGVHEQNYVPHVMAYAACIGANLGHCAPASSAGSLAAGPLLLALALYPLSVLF

Genome polyprotein = Genome polyprotein (dengue virus type 2, UniProt P29990); assay: Dengue-2 NS5 methyltransferase inhibitors, primary screen, biochemical, confirmation dose response (AID 588689); format: functional
[5] = target: Intestinal-type alkaline phosphatase (Mus musculus, UniProt P24822); assay: PubChem AID 488785; format: functional
[6] = target: Intestinal-type alkaline phosphatase (Homo sapiens, UniProt P09923); assay: inhibition of human intestinal alkaline phosphatase – biochemical, dose response (AID 488876); format: functional
Vero = Vero cell cytotoxicity, cytotoxicity control for flavivirus capping enzyme inhibitors (AID 588742); format: functional; conditions: Chlorocebus sabaeus
[7] = Shn3 3'UTR reporter inhibitors, dose response, cell-based, Clone20 osteoblasts, firefly luciferase, cherry-picked (AID 624132); format: functional;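 further: firefly luciferase luminescence from reporter carrying the Shn3 3'UTR in osteoblasts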
[8] = control 3'UTR Renilla luciferase suppression, dose response, counter-screen for Shn3 inhibitor project, cell-based, Clone20-Shn3RL, cherry-picked (AID 624133); format: functional
Large T antigen = Large T antigen (Simian virus 40, UniProt P03070); format: functional, Betapolyomavirus macacae;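 further: Confirmatory-stage PubChem screen for compounds that inhibit SV40 T antigen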
[9] = target: Histone-lysine N-methyltransferase NSD2 (Homo sapiens, UniProt O96028); format: biochemical
Histone-lysine N-methyltransferase NSD2, sequence (O96028 whole entry): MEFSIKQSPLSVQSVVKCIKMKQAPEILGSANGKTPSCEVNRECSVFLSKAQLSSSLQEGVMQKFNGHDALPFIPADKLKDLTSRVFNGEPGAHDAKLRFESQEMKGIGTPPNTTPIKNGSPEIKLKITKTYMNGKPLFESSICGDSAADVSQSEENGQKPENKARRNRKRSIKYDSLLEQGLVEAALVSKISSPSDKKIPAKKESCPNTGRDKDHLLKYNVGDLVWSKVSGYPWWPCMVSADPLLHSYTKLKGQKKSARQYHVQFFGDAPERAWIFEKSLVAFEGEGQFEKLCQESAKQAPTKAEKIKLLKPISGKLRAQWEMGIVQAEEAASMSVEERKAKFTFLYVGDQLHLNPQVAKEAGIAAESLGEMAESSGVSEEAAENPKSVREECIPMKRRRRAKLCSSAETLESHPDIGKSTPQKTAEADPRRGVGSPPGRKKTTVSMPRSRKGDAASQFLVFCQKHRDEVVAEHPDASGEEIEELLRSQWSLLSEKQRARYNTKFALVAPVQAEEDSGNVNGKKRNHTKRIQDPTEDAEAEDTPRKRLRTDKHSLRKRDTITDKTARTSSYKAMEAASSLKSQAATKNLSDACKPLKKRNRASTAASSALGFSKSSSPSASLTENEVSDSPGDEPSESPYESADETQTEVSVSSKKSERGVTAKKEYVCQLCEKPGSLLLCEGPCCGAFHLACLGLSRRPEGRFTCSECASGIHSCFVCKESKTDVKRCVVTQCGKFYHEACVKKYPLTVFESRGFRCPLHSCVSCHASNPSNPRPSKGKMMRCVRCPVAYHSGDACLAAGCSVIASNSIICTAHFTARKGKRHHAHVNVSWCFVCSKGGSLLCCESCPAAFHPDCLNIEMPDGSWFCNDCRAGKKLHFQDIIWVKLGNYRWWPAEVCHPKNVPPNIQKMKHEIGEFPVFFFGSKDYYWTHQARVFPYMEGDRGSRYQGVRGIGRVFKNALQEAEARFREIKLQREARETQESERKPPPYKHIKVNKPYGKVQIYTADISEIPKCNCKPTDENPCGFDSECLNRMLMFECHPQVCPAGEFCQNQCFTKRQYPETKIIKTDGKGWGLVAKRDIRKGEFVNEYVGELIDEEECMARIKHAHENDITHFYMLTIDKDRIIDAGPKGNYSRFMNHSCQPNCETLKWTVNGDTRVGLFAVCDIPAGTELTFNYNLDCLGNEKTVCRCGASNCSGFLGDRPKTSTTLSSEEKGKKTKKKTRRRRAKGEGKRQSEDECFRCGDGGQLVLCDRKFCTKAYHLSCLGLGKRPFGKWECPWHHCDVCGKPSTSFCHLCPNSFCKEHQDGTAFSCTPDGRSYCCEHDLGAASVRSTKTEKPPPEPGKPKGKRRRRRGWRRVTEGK

Intestinal-type alkaline phosphatase (Mus musculus, UniProt P24822), sequence (P24822 whole entry): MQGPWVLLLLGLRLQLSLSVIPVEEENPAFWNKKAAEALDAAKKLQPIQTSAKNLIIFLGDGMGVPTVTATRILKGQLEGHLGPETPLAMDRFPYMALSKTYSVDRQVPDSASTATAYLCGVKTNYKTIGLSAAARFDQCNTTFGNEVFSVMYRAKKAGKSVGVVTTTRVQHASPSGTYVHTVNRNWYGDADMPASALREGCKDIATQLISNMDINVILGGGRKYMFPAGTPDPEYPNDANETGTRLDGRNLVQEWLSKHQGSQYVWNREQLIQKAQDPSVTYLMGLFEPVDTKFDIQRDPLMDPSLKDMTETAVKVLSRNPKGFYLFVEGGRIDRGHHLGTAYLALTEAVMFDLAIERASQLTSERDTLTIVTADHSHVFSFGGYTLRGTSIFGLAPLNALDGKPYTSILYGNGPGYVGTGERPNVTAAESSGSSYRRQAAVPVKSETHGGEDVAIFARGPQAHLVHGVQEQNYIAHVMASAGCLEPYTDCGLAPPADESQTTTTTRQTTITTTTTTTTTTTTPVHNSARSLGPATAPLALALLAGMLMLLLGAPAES
Large T antigen, sequence (P03070 whole entry): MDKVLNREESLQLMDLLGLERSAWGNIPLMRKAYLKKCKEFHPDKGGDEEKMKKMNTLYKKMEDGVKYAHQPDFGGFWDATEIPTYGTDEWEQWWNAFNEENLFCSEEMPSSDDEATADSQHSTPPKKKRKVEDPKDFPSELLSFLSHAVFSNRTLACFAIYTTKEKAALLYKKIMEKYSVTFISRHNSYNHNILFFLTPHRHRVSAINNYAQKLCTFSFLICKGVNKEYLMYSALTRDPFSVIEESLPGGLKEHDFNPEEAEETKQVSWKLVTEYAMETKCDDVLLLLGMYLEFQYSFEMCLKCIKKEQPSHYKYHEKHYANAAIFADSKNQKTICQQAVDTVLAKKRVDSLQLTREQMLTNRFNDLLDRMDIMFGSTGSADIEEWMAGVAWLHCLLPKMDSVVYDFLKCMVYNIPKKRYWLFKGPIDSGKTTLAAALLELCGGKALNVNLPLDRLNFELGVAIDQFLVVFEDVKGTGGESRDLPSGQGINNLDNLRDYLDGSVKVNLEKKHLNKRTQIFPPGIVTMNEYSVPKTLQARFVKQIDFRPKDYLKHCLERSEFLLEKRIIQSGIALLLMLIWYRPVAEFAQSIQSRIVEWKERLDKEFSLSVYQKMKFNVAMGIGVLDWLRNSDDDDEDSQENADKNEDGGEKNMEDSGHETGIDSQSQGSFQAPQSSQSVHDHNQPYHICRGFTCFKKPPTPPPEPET
Intestinal-type alkaline phosphatase (Homo sapiens, UniProt P09923), sequence (P09923 whole entry): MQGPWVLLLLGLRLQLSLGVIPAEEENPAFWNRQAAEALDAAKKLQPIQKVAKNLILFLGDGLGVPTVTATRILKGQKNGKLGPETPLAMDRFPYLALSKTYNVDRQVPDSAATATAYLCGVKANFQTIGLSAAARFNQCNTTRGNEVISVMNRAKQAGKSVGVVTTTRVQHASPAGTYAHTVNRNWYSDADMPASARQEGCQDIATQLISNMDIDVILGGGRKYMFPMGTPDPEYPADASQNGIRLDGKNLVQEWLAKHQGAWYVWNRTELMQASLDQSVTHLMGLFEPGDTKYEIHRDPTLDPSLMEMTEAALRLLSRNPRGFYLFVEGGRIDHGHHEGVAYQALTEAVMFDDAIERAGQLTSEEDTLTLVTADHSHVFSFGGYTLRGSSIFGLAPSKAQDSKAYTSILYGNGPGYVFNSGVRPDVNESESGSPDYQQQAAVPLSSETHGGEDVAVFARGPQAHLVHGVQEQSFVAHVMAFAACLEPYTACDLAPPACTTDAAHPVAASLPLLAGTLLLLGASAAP
Beta-galactosidase, sequence (Q8VNN2 whole entry): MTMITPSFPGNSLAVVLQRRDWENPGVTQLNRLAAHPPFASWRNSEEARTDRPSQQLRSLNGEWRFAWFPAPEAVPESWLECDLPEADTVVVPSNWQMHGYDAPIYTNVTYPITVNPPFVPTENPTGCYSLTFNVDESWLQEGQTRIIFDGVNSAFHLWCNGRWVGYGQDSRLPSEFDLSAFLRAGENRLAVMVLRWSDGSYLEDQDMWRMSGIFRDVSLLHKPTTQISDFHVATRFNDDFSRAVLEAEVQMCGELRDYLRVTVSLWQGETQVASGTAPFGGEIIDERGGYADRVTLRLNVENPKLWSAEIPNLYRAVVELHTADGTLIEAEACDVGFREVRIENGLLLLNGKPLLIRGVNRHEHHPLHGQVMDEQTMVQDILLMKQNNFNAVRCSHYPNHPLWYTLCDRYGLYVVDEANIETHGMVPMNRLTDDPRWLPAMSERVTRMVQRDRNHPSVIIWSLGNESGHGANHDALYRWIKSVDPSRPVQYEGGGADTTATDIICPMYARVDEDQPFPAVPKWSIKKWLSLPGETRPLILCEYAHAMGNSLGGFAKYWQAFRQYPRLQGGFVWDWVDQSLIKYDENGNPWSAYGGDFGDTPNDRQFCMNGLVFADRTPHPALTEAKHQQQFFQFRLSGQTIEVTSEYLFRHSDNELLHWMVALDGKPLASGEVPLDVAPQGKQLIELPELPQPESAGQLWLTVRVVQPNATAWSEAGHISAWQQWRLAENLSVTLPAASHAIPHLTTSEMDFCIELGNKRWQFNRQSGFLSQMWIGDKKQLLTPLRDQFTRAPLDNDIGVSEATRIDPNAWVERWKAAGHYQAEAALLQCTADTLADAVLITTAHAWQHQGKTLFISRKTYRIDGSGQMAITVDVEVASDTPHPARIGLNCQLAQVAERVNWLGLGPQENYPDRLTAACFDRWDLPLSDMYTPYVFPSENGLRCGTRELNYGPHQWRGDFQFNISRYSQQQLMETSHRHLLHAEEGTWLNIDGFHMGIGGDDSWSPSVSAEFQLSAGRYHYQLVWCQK
Genome polyprotein, sequence (P29990 2492-3391 limits assumed): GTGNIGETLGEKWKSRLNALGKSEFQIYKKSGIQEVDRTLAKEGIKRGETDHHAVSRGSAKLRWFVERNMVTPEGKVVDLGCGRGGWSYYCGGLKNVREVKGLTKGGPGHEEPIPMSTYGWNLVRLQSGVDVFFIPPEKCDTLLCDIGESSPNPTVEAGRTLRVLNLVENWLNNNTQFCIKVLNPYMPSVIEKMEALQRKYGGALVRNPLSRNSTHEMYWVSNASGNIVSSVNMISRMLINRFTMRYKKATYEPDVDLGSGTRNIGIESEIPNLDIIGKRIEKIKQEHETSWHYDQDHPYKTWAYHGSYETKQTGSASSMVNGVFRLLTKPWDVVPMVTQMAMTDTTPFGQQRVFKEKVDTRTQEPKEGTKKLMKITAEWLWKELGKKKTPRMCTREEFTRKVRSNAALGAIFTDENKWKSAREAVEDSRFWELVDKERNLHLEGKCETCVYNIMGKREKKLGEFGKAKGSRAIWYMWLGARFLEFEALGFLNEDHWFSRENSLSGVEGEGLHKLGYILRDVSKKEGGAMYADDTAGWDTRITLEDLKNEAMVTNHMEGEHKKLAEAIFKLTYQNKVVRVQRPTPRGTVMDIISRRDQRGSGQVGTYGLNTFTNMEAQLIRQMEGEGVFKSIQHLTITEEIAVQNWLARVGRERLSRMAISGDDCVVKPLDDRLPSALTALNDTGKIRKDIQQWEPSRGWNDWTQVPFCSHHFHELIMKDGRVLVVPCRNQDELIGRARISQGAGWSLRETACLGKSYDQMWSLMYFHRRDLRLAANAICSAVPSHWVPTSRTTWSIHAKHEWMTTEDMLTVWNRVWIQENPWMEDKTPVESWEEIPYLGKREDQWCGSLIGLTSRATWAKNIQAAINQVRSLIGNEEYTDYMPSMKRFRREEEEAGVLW

O=C(/C=C/c1ccc(F)cc1)N1CCN(c2ncccn2)CC1
IC50 (Beta-galactosidase): > 80 µM (inactive)

COc1ccc([C@H]2CC(=O)C=C(c3cccc(Cl)c3O)C2)cc1OC
IC50 [1]: 8.62 µM (active) | IC50 [2]: 4.36 µM (active)

CCOc1cc(Br)cc(/C=C2\SC(Nc3ccccc3)=NC2=O)c1O
IC50 [3]: 35.1 µM (not active) | IC50 [1]: 5.76 µM (active) | IC50 (Insulin-degrading enzyme): 12.7 µM (not active) | IC50 [2]: 1.18 µM (active)

Oc1ccc(-c2csc(Nc3cccc4ccccc34)n2)cc1O
AC50 (Caspase-6): 14.1 µM (active) | IC50 [4]: 78 µM (active) | IC50 (Genome polyprotein): > 100 µM (active) | IC50 [5]: 1.63 µM (active) | IC50 [6]: 3.36 µM (active) | CC50 (Vero): > 40 µM (active) | AC50 [7]: 1.58 µM (active) | AC50 [8]: 7.93 µM (active) | IC50 (Large T antigen): 66.2 µM (active) | AC50 [9]: 10.5 µM (active)
